Consider 10 compounds from ChEMBL document CHEMBL1201862, “PubChem BioAssay data set” (2004).

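Values below derive from 48-hour exposures of cells grown in 96-well plates, with endpoints linearly interpolated between the two concentrations bracketing the appropriate inhibition level. GI50 is the concentration that inhibits growth by half.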 Activity calls are given as the source filed them. Cut-off read from the data, not from the text of the source: active = GI50 up to about 1.1 µM and inactive = higher.

Among the test systems are SNB-19; Malme-3M; UACC-62; K562; NCI-H226; A549; OVCAR-8; OVCAR-5; SF-268; NCI-H460; NCI-H522; A498; SNB-75; HT-29; SF-295; SK-MEL-28; SK-MEL-2; ACHN; M14; TK-10.
Holding throughout (experiment): inhibition of tumour cell growth, NCI panel, 48 h

As to `O=C1ON(Cc2ccccc2)C(c2ccccc2)N1c1ccccc1` (stereo unspecified), the GI50 is > 100 µM (inactive) in the test on SNB-19; > 100 µM (inactive) in the test on Malme-3M; 98.9 µM (inactive) in the test with UACC-62; > 95.9 µM (inactive) in the test on K562; 99.1 µM (inactive) in the test on NCI-H226; > 100 µM (inactive) in the test on A549. Moreover, the GI50 in the test with OVCAR-8, in the test with OVCAR-5, in the test with SF-268, in the test with NCI-H460, with NCI-H522 and with A498 was > 100 µM (inactive) in each case. The GI50 was 62.7 µM (inactive) with SNB-75; > 100 µM (inactive) in the test with HT-29; > 64 µM (inactive) in the test with SF-295; > 100 µM (inactive) in the test with SK-MEL-28; > 100 µM (inactive) with SK-MEL-2.

In the case of `O=NN1C(c2ccccc2)CCCC1c1ccccc1` (stereo unspecified), the GI50 in the test on SNB-19 is > 100 µM (inactive); with Malme-3M, > 65.5 µM (inactive); in the test with UACC-62 it was > 94.8 µM (inactive); in the test on K562 it was 35.9 µM (inactive); in the test with NCI-H226, > 100 µM (inactive); in the test with A549, > 71 µM (inactive). For the same compound, the GI50 in the test with OVCAR-8 is > 43.8 µM (inactive); with OVCAR-5 it was > 100 µM (inactive); with SF-268 it was > 100 µM (inactive); in the test on NCI-H460 it was 43.9 µM (inactive); in the test with NCI-H522 it was 23.4 µM (inactive); in the test on A498 it was 15.1 µM (inactive). In addition, the GI50 in the test with SNB-75 is 28.3 µM (inactive); in the test with HT-29, 22.9 µM (inactive); with SF-295, 22.1 µM (inactive); in the test with SK-MEL-28, > 100 µM (inactive); in the test on SK-MEL-2, 45.9 µM (inactive).

For the compound `CCOC(=O)C1=C(C)N(C2OC(COC(=O)c3ccccc3)C(OC(=O)c3ccccc3)C2OC(=O)c2ccccc2)C(=S)NC1c1ccccc1` (stereo unspecified), the GI50 with SNB-19 is 55.1 µM (inactive); in the test with Malme-3M, 25.5 µM (inactive); with UACC-62, 29.3 µM (inactive); with K562 it was 17.1 µM (inactive); in the test on NCI-H226, 31.1 µM (inactive); in the test on A549 it was 37.4 µM (inactive). Besides, the GI50 was 44.4 µM (inactive) in the test on OVCAR-8; 25.1 µM (inactive) with ACHN; 61.7 µM (inactive) in the test on OVCAR-5; 44.6 µM (inactive) in the test with SF-268; 31.4 µM (inactive) with NCI-H460; 22.1 µM (inactive) in the test on NCI-H522. For the same compound, the GI50 in the test with A498 was 28.2 µM (inactive); in the test on SNB-75, 30.4 µM (inactive); in the test on M14 it was 25.7 µM (inactive); in the test with HT-29 it was 50.6 µM (inactive); in the test with SF-295, 61.7 µM (inactive); in the test on SK-MEL-28, 49.2 µM (inactive). The GI50 in the test with SK-MEL-2 was 64.3 µM (inactive).

Regarding `CC(=O)OCC1OC(OCCCCCCO)C(OC(C)=O)C(OC(C)=O)C1OC(C)=O` (stereo unspecified), the GI50 in the test on SNB-19, in the test on UACC-62, in the test on K562, with NCI-H226, in the test with A549 and in the test with OVCAR-8 was > 100 µM (inactive) in each case. In addition, the GI50 in the test on ACHN, in the test on OVCAR-5, with SF-268, in the test on NCI-H460, in the test with NCI-H522 and in the test with A498 was > 100 µM (inactive) in each case. Besides, the GI50 in the test with TK-10, with SNB-75, in the test with M14, in the test with HT-29, in the test with SF-295 and in the test with SK-MEL-28 was > 100 µM (inactive) in each case. The GI50 with SK-MEL-2 was > 100 µM (inactive).

On to `COc1ccc(-c2cc(-c3cc(OC)c(OC)c(OC)c3)cc(-c3cc4ccccc4oc3=O)n2)cc1`, for which the GI50 is 10.2 µM (inactive) in the test with SNB-19; 5.77 µM (inactive) with Malme-3M; 12.5 µM (inactive) in the test on UACC-62; 30.1 µM (inactive) in the test with K562; 3.95 µM (inactive) in the test with NCI-H226; 15 µM (inactive) in the test with A549. Also, the GI50 with OVCAR-8 was 4.38 µM (inactive); in the test on ACHN, 4.13 µM (inactive); in the test on SF-268, 3.45 µM (inactive); in the test with NCI-H460, 5.78 µM (inactive); in the test with NCI-H522 it was 6.85 µM (inactive); with A498, 5.65 µM (inactive). For the same compound, the GI50 was 8.18 µM (inactive) in the test with TK-10; 2.51 µM (inactive) in the test with SNB-75; 16.6 µM (inactive) with M14; 9.4 µM (inactive) with HT-29; 4.99 µM (inactive) in the test with SF-295; 20 µM (inactive) in the test on SK-MEL-2.

For the compound `COC(=O)c1ccc(/N=N/N(C)COc2ccc([N+](=O)[O-])cc2)cc1`, the GI50 with SNB-19 is > 100 µM (inactive); in the test with Malme-3M, > 100 µM (inactive); in the test with UACC-62, 33.3 µM (inactive); in the test on K562, 50.7 µM (inactive); with NCI-H226 it was > 100 µM (inactive); with A549, > 100 µM (inactive). Further, the GI50 in the test on OVCAR-8 is > 100 µM (inactive); with OVCAR-5, > 95.7 µM (inactive); in the test on SF-268 it was > 78.2 µM (inactive); in the test on NCI-H460 it was 15.5 µM (inactive); in the test with NCI-H522, > 100 µM (inactive); in the test on A498, > 87.5 µM (inactive). The GI50 in the test with SNB-75 is 54.6 µM (inactive); in the test on HT-29 it was > 94 µM (inactive); in the test with SF-295, > 77.4 µM (inactive); with SK-MEL-28, > 100 µM (inactive); in the test on SK-MEL-2, > 80.9 µM (inactive).

Turning to `N#CC1(C#N)C(=O)c2ccncc2C1=O`, the GI50 with SNB-19, in the test with Malme-3M, in the test on UACC-62, with K562, with NCI-H226 and in the test with A549 was > 100 µM (inactive) each time. Also, the GI50 with OVCAR-8, in the test with ACHN, in the test with OVCAR-5, in the test with SF-268, with NCI-H460 and in the test with NCI-H522 was > 100 µM (inactive) throughout. For the same compound, the GI50 in the test with A498, with SNB-75, with M14, with HT-29, in the test on SF-295 and in the test with SK-MEL-28 was > 100 µM (inactive) in each case. For the same compound, the GI50 with SK-MEL-2 was > 100 µM (inactive).

In the case of `O=[N+]([O-])c1ccc(C2Nn3c(nnc3-c3cccc([N+](=O)[O-])c3)S2)cc1` (stereo unspecified), the GI50 in the test on SNB-19 is > 100 µM (inactive); in the test on Malme-3M it was > 100 µM (inactive); with UACC-62, > 100 µM (inactive); with K562, 50 µM (inactive); with NCI-H226 it was 0.0735 µM (active); in the test on A549, > 100 µM (inactive). Also, the GI50 in the test on OVCAR-8 was 92.3 µM (inactive); with ACHN, > 100 µM (inactive); with OVCAR-5, > 100 µM (inactive); in the test with SF-268, > 100 µM (inactive); in the test on NCI-H460 it was > 100 µM (inactive); with NCI-H522 it was > 100 µM (inactive). The GI50 in the test on A498, with TK-10, with SNB-75, in the test on M14, with HT-29 and in the test with SF-295 was > 100 µM (inactive) each time. Also, in the test on SK-MEL-2, the GI50 is 66.7 µM (inactive).

As to `O=S(=O)(O)c1ccc(/N=N\c2ccc(/N=N/c3ccc(/C=C/c4ccc(/N=[N+](\[O-])c5ccc(/C=C/c6ccc(/N=N/c7ccc(/N=N/c8ccc(S(=O)(=O)O)cc8)c8ccccc78)cc6S(=O)(=O)O)c(S(=O)(=O)O)c5)cc4S(=O)(=O)O)c(S(=O)(=O)O)c3)c3ccccc23)cc1`, the GI50 in the test on SNB-19 is > 10 µM (inactive); with Malme-3M it was > 100 µM (inactive); with UACC-62, > 100 µM (inactive); with K562, > 100 µM (inactive); in the test with NCI-H226 it was > 83.4 µM (inactive); in the test with A549, > 89.1 µM (inactive). Further, the GI50 is > 100 µM (inactive) with OVCAR-8; > 100 µM (inactive) in the test with OVCAR-5; > 100 µM (inactive) in the test on SF-268; > 100 µM (inactive) in the test on NCI-H460; 54.5 µM (inactive) in the test on NCI-H522; > 100 µM (inactive) in the test with A498. For the same compound, the GI50 with SNB-75 was 50.7 µM (inactive); in the test with HT-29, > 100 µM (inactive); in the test on SF-295 it was > 74.6 µM (inactive); in the test with SK-MEL-28, > 100 µM (inactive); with SK-MEL-2, > 100 µM (inactive).

As to `CC(=O)O[C@@]12CO[C@@H]1CC(O)[C@@]1(C)C(=O)[C@H](O)C3=C(C)C(O)C[C@@](O)(C(OC(=O)c4ccccc4)C12)C3(C)C` (stereo partly specified), the GI50 in the test with SNB-19 was 3.3 µM (inactive); in the test with Malme-3M, 2.54 µM (inactive); with UACC-62 it was 0.508 µM (active); in the test on K562, 0.619 µM (active); in the test with NCI-H226, > 100 µM (inactive); in the test with A549, 3.81 µM (inactive). The GI50 is 3.13 µM (inactive) in the test with OVCAR-8; 51.2 µM (inactive) in the test on ACHN; 3.94 µM (inactive) in the test on OVCAR-5; 3.97 µM (inactive) in the test with SF-268; 1.02 µM (active) in the test with NCI-H460; 0.637 µM (active) in the test with NCI-H522. In addition, the GI50 in the test on A498 is 5.82 µM (inactive); in the test with TK-10 it was 8.51 µM (inactive); in the test with SNB-75, 0.507 µM (active); in the test on M14, 2.59 µM (inactive); in the test on HT-29 it was 0.385 µM (active); with SF-295 it was 5.32 µM (inactive). Besides, the GI50 in the test with SK-MEL-2 is 0.367 µM (active).
